Results published in patent US12616753B2, “HSP70 inhibitors and methods of using same” (THE WISTAR INSTITUTE, priority 2020, dated 2026).

Target: T1, full length human HSP70 (Homo sapiens, UniProt P0DMV8)
T1 construct: Five μL of 30 nM full length human HSP70 in assay buffer
Experiment: HSP70 mediated ATPase assay (Transcreener ADP-FI)
Assay type: biochemical
Experimental: FIGS. 1A-1D show ATPase inhibition and direct binding of a novel HSP70 inhibitor. FIG. 1A: Compounds AP-3-97 and AP-4-139B are direct inhibitors of HSP70. HSP70 mediated ATPase activity was assessed using the TRANSCREENER® ADP-FI assay. Five microliters of 30 nM purified human HSP70 in assay buffer was added to test compounds for 30 minutes, followed by addition of excess ATP. After 15 minutes, reactions were stopped and fluorescence was assessed on a plate reader. Data are normalized to percent inhibition, where 100% is the value in the absence of HSP70, and 0% is the value in the presence of HSP70. Compounds shown include PET-16 (positive control) and the novel HSP70 inhibitors AP-3-97 and AP-4-139B. VY-3-277 was used as a negative control. FIG. 1B: Compound AP-4-139B binds HSP70. Whole cell extracts (WCE) from H1299 cells were incubated with 10 μM Biotin or with a Biotin-labeled variant of AP-4-139B (Biotin-AP-4-139B) for 5 hours. Biotin-AP-4-139B containing complexes were captured using NeutrAvidin resins and separated by SDS-PAGE. The Coomassie-stained protein band of approximately 70 kDa was excised and subjected to tryptic digestion and liquid chromatography-tandem mass spectrometry, and identified to be HSP70. FIG. 1C: H1299 cells were pre-treated with 10 μM of VY-3-277, PET-16, or AP-4-139B for 1 hour prior to the addition of 10 μM Biotin-AP-4-139B for 5 hours. Biotin-AP-4-139B containing complexes were captured by NeutrAvidin resins and immunoblotted using the indicated antibodies following SDS-PAGE. Whole cell extracts (WCE) were examined for the expression of HSP70 (input) and GRP75 (input) by Western blot analysis. FIG. 1D: Compound AP-4-139B directly binds purified human HSP70. […] Data were analyzed using the evaluation software from Biacore and the resulting sensograms were exported and re-plotted in GraphPad Prism.
HSP70 mediated ATPase activity was measured using the Transcreener® ADP-FI assay (BellBrook Labs). […] After 30 minutes, fluorescence at 560/620 nm was measured using the Envision plate reader. […]

T1 sequence (P0DMV8 whole entry): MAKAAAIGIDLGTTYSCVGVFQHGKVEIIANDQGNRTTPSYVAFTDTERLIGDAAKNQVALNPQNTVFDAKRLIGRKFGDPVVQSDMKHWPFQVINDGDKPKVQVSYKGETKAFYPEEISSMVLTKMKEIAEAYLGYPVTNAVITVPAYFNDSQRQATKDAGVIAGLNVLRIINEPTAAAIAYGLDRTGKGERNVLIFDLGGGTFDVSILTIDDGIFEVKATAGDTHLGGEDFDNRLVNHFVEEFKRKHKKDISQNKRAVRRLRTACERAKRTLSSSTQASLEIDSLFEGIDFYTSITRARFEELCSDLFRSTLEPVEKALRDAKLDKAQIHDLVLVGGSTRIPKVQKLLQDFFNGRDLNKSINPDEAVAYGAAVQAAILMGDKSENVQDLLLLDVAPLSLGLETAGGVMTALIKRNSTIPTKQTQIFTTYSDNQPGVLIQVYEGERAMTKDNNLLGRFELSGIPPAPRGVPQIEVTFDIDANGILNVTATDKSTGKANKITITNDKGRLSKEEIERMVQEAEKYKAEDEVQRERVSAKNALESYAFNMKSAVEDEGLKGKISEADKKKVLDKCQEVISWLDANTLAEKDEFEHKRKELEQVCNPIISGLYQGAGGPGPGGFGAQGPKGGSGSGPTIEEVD

In the case of `c1ccc(-c2cn3nc(CCCCCC[P+](c4ccccc4)(c4ccccc4)c4ccccc4)sc3n2)cc1` [AP-4-139B, Triphenyl(6-(6-phenylimidazo[2,1-b][1,3,4]thiadiazol-2-yl)hexyl)phosphonium bromide], the “inhibition of HSP70 ATPase activity (in words)” value is reported as “markedly superior potency”.
Compound `C(#C[P+](c1ccccc1)(c1ccccc1)c1ccccc1)c1ccccc1` [PET-16, Triphenyl(phenylethynyl)phosphonium bromide, reference compound] has an IC50 of ~3 µM.
